Results on five molecules are retold here after patent publication US6121322A, “Azulene derivatives” (Boehringer Mannheim GmbH, priority 1997, dated 2000).

Data set [1] relates to TNFα. The note with it: cited from earlier work.
The conditions of data set [2]: in vivo; cited from earlier work.
In a further data set the test system is HIV. The note with it: cited from earlier work.
Data set [3] relates to animal models for multiple sclerosis. Conditions: animal experiments; cited from earlier work.
Data set [4] relates to TNFα. Conditions: in vivo; cited from earlier work.
The test system of the next data set is PDE4. The note with it: cited from earlier work.
In another data set the test system is TNFα synthesis. Put plainly: TNFα Synthesis Assay (LPS-stimulated human leukocytes, TNFα in supernatant by enzyme immunoassay). Type of data set: cell-based. The note with it: Leukocyte, 37° C., 2 hours, read-out: TNFα synthesis inhibition in vitro IC50. As for the experimental part: Experimental Procedure in Vitro
Human leukocytes are obtained from heparinized full blood over a Ficol gradient, washed with RPMI 1640 medium having the prescribed additives and adjusted in the same medium to a cell count of 1×10^6 cells/ml. 20 μl of the substance to be tested in 10-fold concentration, 20 μl of an LPS solution of 4 μg/ml and 160 μl of the adjusted cell suspension are incubated in the individual wells of a 96 well culture plate at 37° C. for 2 hours. The experiments are carried out as double determinations. At the end of the incubation period the plates are carefully shaken and centrifuged. Two samples each of 50 μl are withdrawn from the clear culture supernatant for the analysis of TNFα.
Analysis of TNFα in the Cell Cupernatant by Enzyme Immunoassay
Nunc-Maxisorb plates are coated with a mouse-anti-human-TNFα antibody (1 μg/ml, 50 μl/well, Dianova/Pharmingen 18631D, carbonate buffer pH 9.5) and free binding capacity is saturated with a gelatine- and serum albumin-containing blocking buffer. After washing the plates there are pipetted in double determination in each case 25 μl of the analyte as well as on each plate a series of standard concentrations. For the detection of the analyte, 25 μl of a biotinylated mouse-anti-human-TNFα antibody ([…] 25 μl/well, Dianova/Pharmingen 18642D, blocking buffer) are added and the plates are shaken at room temperature for 2 hours. After washing incubation is carried out with streptavidin-alkaline phosphatase conjugate (50 μl/well) and finally with 4-nitrophenyl phosphate and evaluation is carried out on a photometer. The concentrations of the measured samples are determined using a computer program based on a calibration curve from the co-determined standard concentrations.
Determination of the IC50
The percentage inhibition for the individual sample is calculated by comparing the TNFα concentration obtained for the measured samples with the non-inhibited samples. The IC50 is determined by computer from the concentration relationship of the inhibitor value.

In brackets after ≈: the same amount, converted by molar mass. Entries after “also recorded” stand apart in the source; their conditions may differ.

Take `O=C1CCC(N2C(=O)c3ccccc3C2=O)C(=O)N1` (stereo not shown) [Thalidomide]: the TNFα blockade entry with TNFα [1] is “weak TNFα blockade”. Moreover, the side effects result in data set [2] is “teratogenic side effects”. For the same molecule, the “suppression of the proliferation of HIV” value in the data set on HIV is listed as “supresses the proliferation of HIV”.

For the molecule `COc1ccc(C2CNC(=O)C2)cc1OC1CCCC1` (stereo not shown) [rolipram], the “activity in animal models for multiple sclerosis” value in data set [3] is reported as “very good activity”. Further, in data set [2], the side effects result is “emetic activity; also recorded: massive side effects”. For the same molecule, the “inhibition of the synthesis of TNFα” value in the data set with TNFα [4] was “inhibition of the synthesis of TNFα in vitro and in vivo”. In addition, the “inhibition of PDE4” value in the data set on PDE4 was “inhibits PDE4”.

As usually defined, the IC50 is the concentration that gives 50% inhibition. For the molecule `CCOC(=O)c1c2ccc(CC(=O)NOCC(=O)N(CCOC)CCOC)ccc-2c(C(=O)OCC)c1N` [Example 4, Diethyl 2-amino-6-{[2-oxo-2-(N,N-bis-2-methoxyethyl-amino)-ethoxycarbamoyl]-methyl}-azulene-1,3-dicarboxylate], the 50% inhibitory concentration (IC50) in the data set on TNFα synthesis came to 0.03 mg/L (≈ 0.0562 µM).

`CCOC(=O)c1c2ccc(CC(=O)NOC(=O)N3CCN(C)CC3)ccc-2c(C(=O)OCC)c1N` [Example 31, Diethyl 2-amino-6-{[(4-methyl-piperazino)-carbonyloxy-carbamoyl]-methyl}-azulene-1,3-dicarboxylate]: the half-maximal inhibitory concentration (IC50) in the data set with TNFα synthesis is 0.1 mg/L (≈ 0.206 µM).

Take `CCOC(=O)c1c2ccc(CC(=O)NOCCN3CCOCC3)ccc-2c(C(=O)OCC)c1N` [Example 20]: the IC50 in the data set with TNFα synthesis came out at 0.05 mg/L (≈ 0.106 µM).
